Common to all, as to assay type: functional, organism-based
In assay [1] the test system is Plasmodium falciparum. Kind of assay: Antimalarial activity against multidrug-resistant Plasmodium falciparum TM91C235 after 24 hrs by [3H]hypoxanthine uptake.
Assay [2] has as its system Plasmodium falciparum. Nature of the assay: Antimalarial activity against Plasmodium falciparum D6 after 24 hrs by [3H]hypoxanthine uptake.
Assay [3] deals with Plasmodium falciparum. Kind of assay: Antimalarial activity against Plasmodium falciparum W2 after 24 hrs by [3H]hypoxanthine uptake.

By IC50 is commonly meant the midpoint of a concentration-inhibition curve. On to `OC(c1cc(C(F)(F)F)nc2c(C(F)(F)F)cccc12)C1CCCCN1` (centres undefined) [MEFLOQUINE], for which, in assay [1], the 50% inhibitory concentration (IC50) stood at 0.059 µM.
Turning to `C[C@]12CC[C@]3(C1)[C@H](CC2=O)C[C@@H](OC(=O)c1ccccc1)[C@H]1[C@@](CO)(C(=O)O)CCC[C@@]13C` [SCOPADULCIC ACID A], the IC50 in assay [1] is 23 µM; in assay [2] it was 27 µM; in assay [3] it was 19 µM.

(Values after ChEMBL document CHEMBL1148131, “Efficacy of scopadulcic acid A against Plasmodium falciparum in vitro” (J Nat Prod, 2002).)
